Patent US20140314757A1, “PHYTOCANNABINOIDS FOR USE IN THE TREATMENT OF BREAST CANCER” (priority 2011, published 2014)

Key:
BT474 cells = assay: MTT cell viability, BT474 cells; type: cell-based, human; settings: for cell viability, increasing concentrations: 72 h, concentration-related (FIG. 2); for cell viability at low concentrations: <1 μM, alone or 1:1 combination, 72 h (FIG. 3)
Procedure: (§1) The effect of THC and CBD, alone and in combination, on the viability of two different Her2-positive human breast cancer cell lines: SkBr3 and BT474 were tested.
(§2) Briefly, cells were incubated in RPMI (SkBr3) or DMEM (BT474) supplemented with 10% foetal bovine serum. After 12 hours of serum starvation, the cells were challenged with different concentrations of THC or CBD (or the corresponding vehicle, DMSO) for 72 h. Cell viability was then determined by the colorimetric MTT test.
The analysis of the combined drug effect was performed with the CalcuSyn v2.0 software. To determine whether the combination of THC and CBD was additive or synergistic, we calculated different combination indexes (Cis) using the algorithm by Chou and Talalay with the CalcuSyn v2.0 software.
For each ED, the software (i) plots a line connecting the concentrations of THC and CBD that produce that particular effect when administered as single agents, and (ii) generates a point that indicates the concentration of THC and CBD, applied as a combination, required to produce such effect. If the line is straight, this means that the two compounds are producing a simple additive effect and the point should appear within it.
The effect of THC and CBD, alone and in combination at different ratios, on the viability of BT474 cells was examined.
Cells were incubated in DMEM supplemented with 10% foetal bovine serum. After 12 hours of serum starvation, cells were challenged for 72 h as described in Table 3.1. Cell viability was then determined by the colorimetric MTT test.

MDA-MB-231 cells = assay: MTT cell viability, MDA-MB-231 cells; type: cell-based, human; settings: 48 h (FIG. 11)
Procedure: (§3) Cells were incubated in the presence of cannabinoids for 48 h and cell viability was assessed by the MTT colorimetric test.

[1] = test system: 231-Met (highly metastatic 231-Her2-derived cell line); assay: MTT cell viability, highly metastatic 231-Her2 cells; type: cell-based, human; settings: for cell viability, increasing concentrations: 72 h (FIG. 9); for IC50 values, cell viability: 72 h, THC compared with CBD (FIG. 9)
Procedure: The effect of THC and CBD on the viability of a series of Her2-positive human breast cancer cell lines: MDA-MB-231 cells that ectopically overexpress Her2 (231-Her2), a highly metastatic version of 231-Her2 (231-Met), and three different trastuzumab-resistant 231-Her2-derived cell lines (TrR1, TrR2 and TrR3).
Cells were incubated in DMEM supplemented with 10% foetal bovine serum. After 12 hours of serum starvation, cells were challenged with different concentrations of THC or CBD (or the corresponding vehicle, DMSO) for 72 h. Cell viability was then determined by the colorimetric MTT test.
as §3

SkBr3 cells = assay: MTT cell viability, SkBr3 cells; type: cell-based, human; settings: for cell viability, increasing concentrations: 72 h, concentration-related (FIG. 2)
Procedure: as §1, §2

[2] = test system: MDA-MB-231 cells stably overexpressing Her2 (231-Her2); assay: MTT cell viability, 231-Her2 cells; type: cell-based, human; settings: 48 h (FIGS. 13 and 14)
Procedure: as §3

id-1 gene expression = settings: MDA-MB231 and MDA-MB436 cell lines; cited from earlier work

Compound	cell viability upon exposure to THC (BT474 cells; 6 μM THC, 72 h (FIG. 1C))	cell viability, increasing concentrations (BT474 cells)	cell viability at low concentrations (BT474 cells)	cell viability, single agents (MDA-MB-231 cells)	cell viability, increasing concentrations [1]	IC50 values, cell viability [1]	cell viability upon exposure to THC (SkBr3 cells; 3 μM THC, 72 h (FIG. 1C))	cell viability, increasing concentrations (SkBr3 cells)	cell viability, single agents, increasing concentrations [2]	id-1 gene expression (id-1 gene expression)	effect of CB2 antagonist on THC-induced decrease of viability (BT474 cells; 6 μM THC with 2 μM SR144528, 72 h (FIG. 1C))	effect of CB2 antagonist on THC-induced decrease of viability (SkBr3 cells; 3 μM THC with 2 μM SR144528, 72 h (FIG. 1C))
CCCCCc1cc(O)c2c(c1)OC(C)(C)[C@@H]1CCC(C)=C[C@@H]21 [THC, tetrahydrocannabinol]	decreases	reduced their viability	no effect on cell viability	sensitive	decreased its viability	virtually identical	decreases	reduced their viability	decreases	–	–	–
C=C(C)[C@@H]1CCC(C)=C[C@H]1c1c(O)cc(CCCCC)cc1O [CBD, cannabidiol]	–	reduced their viability	no effect on cell viability	sensitive	decreased its viability	virtually identical	–	reduced their viability	decreases	inhibit	–	–
SR144528	–	–	–	–	–	–	–	–	–	–	prevented	prevented
